Assay results published in patent US20090087440A1, “Methods for Treating Cancer” (SCHERING CORPORATION, priority 2001, published 2009).
“Also recorded” adds a separate entry of the source.

Legend:
C26-6CK tumor [1] = assay: Therapeutic effect of CpG 1668+indomethacin in the C26-6CK tumor model (Example X); assay type: in vivo, BALB/c mice; conditions: C26-6CK s.c.; 5 μg CpG 1668 intra-tumorally Day 7, 14, 21; indomethacin 5 μg/ml in drinking water day 5 to 28
Bone marrow-derived DC = assay: Activation of bone marrow-derived DC cultured with C26 tumor supernatant (Example IX); assay type: cell-based, mouse; conditions: 10% v/v supernatant, indomethacin 1 μg/ml during supernatant preparation, anti-IL10R 10 μg/ml
Procedure: Bone marrow-derived DCs were obtained by culture of bone marrow progenitors with GM-CSF and TNFα for 5 days in the presence or absence of 10% v/v of a supernatant from C26 tumors. To prepare tumor supernatant, 0.5 cm C26 tumors grown subcutaneously in BALB/c mice were excised and minced, then cultured for 48 hours in 10 ml DMEM. The resulting supernatant was filtered at 0.2 μm and frozen before use. This supernatant contained 0.25 ng/ml IL-10 and 50 ng/ml PGE2, as determined by specific ELISA (R&D Systems). In order to inhibit PGE2 synthesis in the supernanant, the inhibitor of cyclo-oxygenase indomethacin (Sigma) was added at 1 μg/ml during the 48 h culture.
After 5 days, bone-marrow DC were activated with different combinations of optimal doses of LPS, IFNγ and anti-CD40 antibody in the presence or absence of 10 μg/ml anti-IL10R antibody. The activation of DC was measured by their expression of the co-stimulatory molecules CD40 and CD86 by FACS as well as by the production of IL-12 as detected by intra-cellular staining.

[2] = tested on: C26-6CK tumor-infiltrating dendritic cells; assay: Mixed leukocyte reaction with activated C26-6CK TIDC (Example III); assay type: cell-based, mouse; conditions: overnight activation, 5 days with allogeneic T cells
C26 tumor = assay: Therapeutic effect in the C26 tumor model (Example VI); assay type: in vivo, BALB/c mice
Excerpt: Control antibody was purified GL113 antibody.

C26-6CK tumor [3] = assay: Therapeutic effect in the C26-6CK tumor model (Example V)
Procedure: • 1×10^5 C26-6CK tumor cells were implanted s.c. at Day 0 in groups of seven 8 week-old female BALB/c mice and treated as follow: • 10 μg of CpG 1668 were injected peri- (when tumor too small) or intratumorally at Day 7, 14, and 21. • 250 μg anti-IL10R purified antibody were injected intraperitoneally twice a week starting at Day 7 (stop Day 24).
(§1) Tumor development was assessed three times a week by palpation and tumors measured using a caliper with tumor volume=I^2×L×0.4, I being the small diameter and L the large diameter. Mice were sacrificed when tumors exceeded 1500 mm^3 or for humane criteria.

B16F0 melanoma tumor = assay: Therapeutic effect in the B16F0 melanoma tumor model (Example VII)
Procedure: • 5×10^4 B16F0 tumor cells were implanted s.c. at Day 0 in groups of seven 8 week-old female C57BL/6 mice and treated as follow: • 5 μg of CpG 1668 were injected intra-tumorally at Day 7, 14, and 21. • 250 μg anti-IL10R purified antibody were injected intraperitoneally at Day 7, 14, and 21. Control antibody was purified GL113 antibody.
as §1

[4] = tested on: C26-6CK tumor-infiltrating dendritic cells; assay: IL-12 p70 and TNFα ELISA in supernatants of activated C26-6CK TIDC (Example II); assay type: cell-based, mouse
[5] = tested on: C26-6CK tumor-infiltrating dendritic cells; assay: Activation of C26-6CK tumor-infiltrating DC with LPS, IFNγ and anti-CD40, compared with bone marrow-derived DC (Example I); assay type: cell-based, mouse

| Compound | mice that did not develop tumor (C26-6CK tumor [1]) | relief of the inhibition of DC activation by C26 tumor supernatant (CD40, CD86, IL-12 expression) (Bone marrow-derived DC) | MLR stimulatory capacity of tumor-infiltrating DC (thymidine incorporation) [2] | overall anti-tumor effect (C26 tumor) | mice that did not develop a tumor (C26-6CK tumor [3]; C26-6CK s.c., 10 μg CpG 1668 peri- or intratumorally Day 7, 14, 21) | mean volume of tumors versus control group (C26-6CK tumor [3]; C26-6CK s.c., after three weeks) | overall anti-tumor effect (C26-6CK tumor [3]; C26-6CK tumor model) | overall anti-tumor effect (B16F0 melanoma tumor) | IL-12 p70 production in culture supernatants (ELISA) ([4]; C26-6CK TIDC, GM-CSF 10 ng/ml, 24 h, CpG 1668 5 μg/ml, anti-IL10R 10 μg/ml) | activating tumor-infiltrating dendritic cells ([4]; Examples II and III) | response of tumor-infiltrating DC to stimulation (co-stimulatory molecules, MLR, IL-12 and TNFα) [5] |
| --- | --- | --- | --- | --- | --- | --- | --- | --- | --- | --- | --- |
| COc1ccc2c(c1)c(CC(=O)O)c(C)n2C(=O)c1ccc(Cl)cc1 [indomethacin] | 1/7 | relieved partially | – | – | – | – | – | – | – | – | – |
| CpG 1668: TLR-9 ligand in the mouse, sequence TCC-ATG-ACG-TTC-CTG-ATG-CT (SEQ ID NO: 5), MWG Biotech (TCCATGACGTTCCTGATGCT; DNA, all phosphorothioate, methylation of C not given here) | 1/7 | – | minimally enhanced | marginal effect | 1/7 | smaller than in the control group | minor effect; also recorded: marginal effect | marginal effect | does not induce | marginal effect | – |
| IFNγ: cytokine IFNγ (R&D Systems) | – | – | – | – | – | – | – | – | – | – | did not respond |
